From US6472348B1, “Pyridone derivatives and herbicides” (Kumiai Chemical Industry Co., Ltd., priority 1996, dated 2002)

Key:
Type in all cases: in vivo
pale smartweed (Po) [1] = assay: Test Example 7: crop plant selectivity by upland field soil treatment (corn), herbicidal effects; set-up: scale not given here; conditions: 21st day after application
Procedure, shortened: (§1)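 Corn and weed seeds were sown in sand-filled pots and covered with soil. After application, plants were grown in a greenhouse, and herbicidal effect and crop phytotoxicity were scored against fixed rating standards on day 21.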

China jute (Ab) = assay: as above; set-up: scale not given here; conditions: 21st day after application
Procedure, shortened: as §1

slender amaranth (Am) [2] = assay: as above; set-up: scale not given here; conditions: 21st day after application
Procedure, shortened: as §1

green foxtail (Se) = assay: as above; set-up: scale not given here; conditions: 21st day after application
Procedure, shortened: as §1

[3] = test system: common lambsquarters (Ch); assay: as above; set-up: scale not given here; conditions: 21st day after application
Procedure, shortened: as §1

pale smartweed (Po) [4] = assay: Test Example 2: herbicidal effects by upland field soil treatment; conditions: 100 g of the active ingredient per 10 ares;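 further: grade of growth control; 5 = at least 90%; 4 = 70 to 90%; 3 = 50 to 70%; 2 = 30 to 50%; 1 = 10 to 30%; 0 = under 10%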
Text: (§2) (Test on Herbicidal Effects by Upland Field Soil Treatment)

barnyardgrass (Ec) = assay: as above; conditions: 100 g of the active ingredient per 10 ares;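 further: grade of growth control; 5 = at least 90%; 4 = 70 to 90%; 3 = 50 to 70%; 2 = 30 to 50%; 1 = 10 to 30%; 0 = under 10%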
Text: as §2

slender amaranth (Am) [5] = assay: as above; conditions: 100 g of the active ingredient per 10 ares
Text: as §2

Digitaria ciliaris (Di) = assay: as above; conditions: 100 g of the active ingredient per 10 ares;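 further: grade of growth control; 5 = at least 90%; 4 = 70 to 90%; 3 = 50 to 70%; 2 = 30 to 50%; 1 = 10 to 30%; 0 = under 10%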
Text: as §2

[6] = test system: common lambsquarters (Ch); assay: as above; conditions: 100 g of the active ingredient per 10 ares
Text: as §2

[7] = evaluated on the 21st day after application
[8] = 21st day after the application, index 0-5 of Table 47

Row | SMILES | Herbicidal effects Po (pale smartweed (Po) [1]; dose 6.3 g ai/10a) | Herbicidal effects Ab (China jute (Ab); dose 6.3 g ai/10a) | Herbicidal effects Am (slender amaranth (Am) [2]; dose 6.3 g ai/10a) | Herbicidal effects Se (green foxtail (Se); dose 6.3 g ai/10a) | Herbicidal effects Ch ([3]; dose 6.3 g ai/10a) | Herbicidal effects Po (pale smartweed (Po) [4]; [7]) | Herbicidal effects Ec (barnyardgrass (Ec); [7]) | Herbicidal effects Am (slender amaranth (Am) [5]; [7]) | Herbicidal effects Di (Digitaria ciliaris (Di); [7]) | Herbicidal effects Ch [6, 7] | Herbicidal effects Po (pale smartweed (Po) [1]; dose 1.6 g ai/10a) | Herbicidal effects Ab (China jute (Ab); dose 1.6 g ai/10a) | Herbicidal effects Am (slender amaranth (Am) [2]; dose 1.6 g ai/10a) | Herbicidal effects Se (green foxtail (Se); dose 1.6 g ai/10a) | Herbicidal effects Ch ([3]; dose 1.6 g ai/10a) | Herbicidal effects Po (pale smartweed (Po) [4]; [8]) | Herbicidal effects Ec (barnyardgrass (Ec); [8]) | Herbicidal effects Am (slender amaranth (Am) [5]; [8]) | Herbicidal effects Di (Digitaria ciliaris (Di); [8]) | Herbicidal effects Ch [6, 8]
1 | CCCc1cc2c(-c3ccc(C(F)(F)F)n(C)c3=O)c(F)cc(Cl)c2o1 [Compound 4-3] | 5 | 5 | 5 | 5 | 5 | 5 | 5 | 5 | 5 | 5 | – | – | – | – | – | – | – | – | – | –
2 | CCc1cc2c(Cl)cc(F)c(-c3ccc(C(F)(F)F)n(C)c3=O)c2o1 [Compound 5-2] | 5 | 5 | 5 | 5 | 5 | 5 | 5 | 5 | 5 | 5 | – | – | – | – | – | – | – | – | – | –
3 | CON=Cc1cc(-c2ccc(C(F)(F)F)n(C)c2=O)c(F)cc1Cl [Compound No. 1-72, 5-(1-methyl-6-trifluoromethyl-2(1H)-pyridon-3-yl)-2-chloro-4-fluorobenzaldehydeoxime-O-methyl ether] | – | – | – | – | – | – | – | – | – | – | 5 | 5 | 5 | 5 | 5 | 5 | 5 | 5 | 5 | 5
4 | Cn1c(C(F)(F)F)ccc(-c2cc(C#N)c(Cl)cc2F)c1=O [Compound No. 1-119, 3-(4-chloro-5-cyano-2-fluorophenyl)-1-methyl-6-trifluoromethyl-2(1H)-pyridone] | 5 | 5 | 5 | 5 | 5 | – | – | – | – | – | – | – | – | – | – | 5 | 5 | 5 | 5 | 5
5 | CCCC(=O)c1cc(-c2ccc(C(F)(F)F)n(C)c2=O)c(F)cc1Cl [Compound No. 1-194, 3-[4-chloro-2-fluoro-5-(1-oxobutyl)phenyl]-1-methyl-6-trifluoromethyl-2(1H)-pyridone] | 5 | 5 | 5 | 5 | 5 | 5 | 5 | 5 | 5 | 5 | – | – | – | – | – | – | – | – | – | –
6 | C#CCn1c(=O)sc2cc(F)c(-c3ccc(C(F)(F)F)n(C)c3=O)cc21 [Compound No. 3-1, 3-[6-fluoro-3-(2-propynyl)-benzothiazolin-2-on-5-yl]-1-methyl-6-trifluoromethyl-2(1H)-pyridone] | 5 | 5 | 5 | 5 | 5 | 5 | 5 | 5 | 5 | 5 | 5 | 5 | 5 | 5 | 5 | – | – | – | – | –
7 | COCc1cc2c(-c3ccc(C(F)(F)F)n(C)c3=O)c(F)cc(Cl)c2o1 [Compound No. 4-4, 3-(7-chloro-5-fluoro-2-methoxymethylbenzofuran-4-yl)-1-methyl-6-trifluoromethyl-2-(1H)-pyridone] | 5 | 5 | 5 | 5 | 5 | 5 | 5 | 5 | 5 | 5 | 5 | 5 | 5 | 5 | 5 | – | – | – | – | –
8 | Cn1c(C(F)(F)F)ccc(-c2c(F)cc(Cl)c3oc(CO)cc23)c1=O [Compound No. 4-5, 3-(7-chloro-5-fluoro-2-hydroxymethylbenzofuran-4-yl)-1-methyl-6-trifluoromethyl-2-(1H)-pyridone] | 5 | 5 | 5 | 5 | 5 | 5 | 5 | 5 | 5 | 5 | – | – | – | – | – | – | – | – | – | –
9 | Cn1c(C(F)(F)F)ccc(-c2c(F)cc(Cl)c3occc23)c1=O [Compound No. 4-28, 3-(7-chloro-5-fluorobenzofuran-4-yl)-1-methyl-6-trifluoromethyl-2-(1H)-pyridone] | – | – | – | – | – | 5 | 4 | 5 | 5 | 5 | 5 | 5 | 5 | 5 | 5 | – | – | – | – | –
